Bridges are numbered along the chain shown (N, C = ends). [ ]: non-standard residue; d: D form.
Test system: Diet induced obesity (DIO) littermate C57B1/6J mice
Assay: Treatment of obese MC4R+/− heterozygotic mice by Alzet pump infusion, body weight measured
Type: in vivo
Settings: Alzet pump infusion 1200 nmol/kg/day for 8 days, FIG. 3
Description: Body weight was measured.
The weight change due to the exposure to the compound of SEQ ID NO: 140 in mice that are either wild type for the MC4R gene, or express only a single MC4R allele, or mice without any MC4R protein expression were compared.

“Ac-Arg-c(Cys-D-Ala-His-D-Phe-Arg-Trp-Cys)-NH2 (Ac-RC[dA]H[dF]RWC-NH2; disulfide 2-8 (inferred)) [SEQ ID NO: 140]” was tested, and the “weight loss over the treatment period” value (DIO homozygous MC4R knockout mice (−/−), no MC4R expression) was “did not show significant weight loss” and the “body weight lost over the treatment period” value (DIO mice heterozygous for the MC4R gene (+/−)) was “about 1 gram”.
